# How the values were obtained:
# [1] = test system: patients with chronic kidney disease (eGFR <60 mL/min/1.73 m^2 for ≥3 months); experiment: ANCHOR post-hoc (CKD): renal parameters and TEAEs; type: in vivo, human
# Experimental: (§1) CVD-related (e.g., atherogenic) parameters were analyzed in a post-hoc study of 55 patients from the multi-center, placebo-controlled, randomized double-blind, 12-week study described in Example 1. These 55 patients have chronic kidney disease (e.g., eGFR<60 mL/min/1.73 m^2 for ≥3 months). There was no lower limit of eGFR specified. Analysis: The median difference in percent change from baseline between 4 g/day of E-EPA and placebo for the primary efficacy variable and additional assessments were estimated using the Hodges-Lehmann method (P values from the Wilcoxon rank-sum test for treatment comparisons). Using the Hodges-Lehmann method, departures from normal distribution were observed; for normally distributed parameters, an analysis of covariance model was used with least squares (LS) means and standard errors (SE). Missing values were imputed using the last-observation-carried-forward method. For all post hoc analyses, the alpha for statistical significance was 0.05.
# [2] = test system: patients with chronic kidney disease (eGFR <60 mL/min/1.73 m^2 for ≥3 months); experiment: ANCHOR post-hoc: lipid and lipoprotein parameters, oxidation and inflammation markers; type: in vivo, human
# Experimental: CVD-related (e.g., atherogenic) parameters were analyzed in a post-hoc study of 55 patients from the multi-center, placebo-controlled, randomized double-blind, 12-week study described in Example 1. These 55 patients have chronic kidney disease (e.g., eGFR<60 mL/min/1.73 m^2 for ≥3 months). There was no lower limit of eGFR specified.
# Subjects: 19 patients were randomized to E-EPA and 36 patients were randomized to placebo. One patient in each group discontinued and was excluded from efficacy analyses (but not safety analyses). EPA levels in plasma and RBC were measured in 23 of the 55 patients. These measurements were taken on 7 of the patients randomized to E-EPA and on 16 of the patients that were randomized to the placebo.
# The primary objective of this post-hoc study, which is based on an intention to treat, was to determine if and how 4 g daily of >96% E-EPA affects patients with stage 3 chronic kidney disease (e.g., eGFR<60 mL/min/1.73 m^2 for ≥3 months). The secondary objective was to determine if and how 4 g daily of >96% E-EPA, compared to a placebo, affected CVD-related parameters in patients with a high risk of CVD and fasting TG levels ≥[…] and <500 mg/dL, despite LDL-C goal on statin therapy. These CVD-parameters include lipid levels, lipoprotein levels, and inflammatory markers, such as TC, LDL-C, HDL-C, VLDL-C, VLDL-TG, RLP-C, non-HDL-C, Apo B, Apo C-III, Lp-PLA, hsCRP, and ox-LDL, and in plasma and RBC EPA concentration. CVD-parameters were analyzed for median difference in percent change from baseline to week 12 in subjects receiving 4 g/day of E-EPA and those receiving the placebo.
# as §1, with “Analysis:” for “CVD-related (e.g., atherogenic) parameters were analyzed in a post-hoc study of 55 patients from the multi-center, placebo-controlled, randomized double-blind, 12-week study described in Example 1. These 55 patients have chronic kidney disease (e.g., eGFR<60 mL/min/1.73 m^2 for ≥3 months). There was no lower limit of eGFR specified. Analysis:”
# [3] = 4 g/day group, before treatment
# [4] = 4 g/day group (n = 17), before treatment
# [5] = 4 g/day, week 12, Hodges-Lehmann
smiles,measurement,setting,value
"CC/C=C\C/C=C\C/C=C\C/C=C\C/C=C\CCCC(=O)OCC [E-EPA, ethyl eicosapentaenoate]","BUN at week 12, median (IQR)",[1]; 4 g/day,22.5 (11.0) mg/dL
same,"Nausea, nasopharyngitis, and arthralgia",[1]; 4 g/day,not reported by any patients
same,"eGFR at week 12, median (IQR)",[1]; 4 g/day,56.0 (12.9) mL/min/1.73 m^2
same,"serum creatinine at week 12, median (IQR)",[1]; 4 g/day,1.2 (0.4) mg/dL
same,"serum creatinine, BUN, or eGFR from baseline to week 12 compared to placebo",[1]; 4 g/day,did not produce significant changes
same,"BUN at baseline, median (IQR)",[1]; [3],24.5 (12.0) mg/dL
same,"eGFR at baseline, median (IQR)",[1]; [3],55.0 (13.8) mL/min/1.73 m^2
same,"serum creatinine at baseline, median (IQR)",[1]; [3],1.2 (0.3) mg/dL
same,patients with diarrhea,"[1]; 4 g/day, 2 patients",10.5%
same,patients with TEAE,"[1]; 4 g/day, 11 of 19 patients",57.9%
same,serum albumin,"[1]; 4 g/day, 12 weeks",no significant median changes from baseline
same,"eGFR, median difference in change from baseline compared with placebo","[1]; 4 g/day, P=0.1983",−7.8%
same,"serum creatinine, median difference in change from baseline compared with placebo","[1]; 4 g/day, P=0.1983",6.5%
same,"BUN, median difference in change from baseline compared with placebo","[1]; 4 g/day, P=0.5291",5.5%
same,"BUN, median difference in change from baseline compared with placebo","[1]; 4 g/day, P=0.5471",1.0 mg/dL
same,"Ox-LDL Baseline, median","[2]; 4 g/day group (n = 8), before treatment",48.6 u/L
same,"RLP-C Baseline, median","[2]; 4 g/day group (n = 9), before treatment",17.0 mg/dL
same,"Apo C-III Baseline, median","[2]; 4 g/day group (n = 13), before treatment",15.6 mg/dL
same,"Apo B Baseline, median",[2]; [4],87.0 mg/dL
same,"Lp-PLA2 Baseline, median",[2]; [4],173.0 ng/mL
same,"hsCRP Baseline, median",[2]; [4],1.9 mg/L
same,"TGs Baseline, median","[2]; 4 g/day group (n = 18), before treatment",268.5 mg/dL
same,"HDL-C Baseline, median",[2]; [3],35.0 mg/dL
same,"LDL-C Baseline, median",[2]; [3],76.0 mg/dL
same,"Non-HDL-C Baseline, median",[2]; [3],124.5 mg/dL
same,"TC Baseline, median",[2]; [3],159.5 mg/dL
same,"VLDL-C Baseline, median",[2]; [3],42.0 mg/dL
same,"VLDL-TGs Baseline, median",[2]; [3],194.0 mg/dL
same,reduction of TG compared to placebo,"[2]; 4 g/day, 12 weeks, P=0.007",at least 16.9%
same,median TGs reduction from baseline,"[2]; 4 g/day, CKD cohort",−16.9%
same,"Apo B Change From Baseline, %, median","[2]; 4 g/day, week 12",−7.2%
same,"Apo B End of Treatment, median","[2]; 4 g/day, week 12",83.0 mg/dL
same,"Apo C-III Change From Baseline, %, median","[2]; 4 g/day, week 12",−7.3%
same,"Apo C-III End of Treatment, median","[2]; 4 g/day, week 12",13.9 mg/dL
same,"HDL-C Change From Baseline, %, median","[2]; 4 g/day, week 12",0.9%
same,"HDL-C End of Treatment, median","[2]; 4 g/day, week 12",35.5 mg/dL
same,"LDL-C Change From Baseline, %, median","[2]; 4 g/day, week 12",−6.5%
same,"LDL-C End of Treatment, median","[2]; 4 g/day, week 12",70.5 mg/dL
same,"Lp-PLA2 Change From Baseline, %, median","[2]; 4 g/day, week 12",−12.7%
same,"Lp-PLA2 End of Treatment, median","[2]; 4 g/day, week 12",150.0 ng/mL
same,"Non-HDL-C Change From Baseline, %, median","[2]; 4 g/day, week 12",−8.4%
same,"Non-HDL-C End of Treatment, median","[2]; 4 g/day, week 12",116.0 mg/dL
same,"Ox-LDL Change From Baseline, %, median","[2]; 4 g/day, week 12",−9.5%
same,"Ox-LDL End of Treatment, median","[2]; 4 g/day, week 12",45.1 u/L
same,"TC Change From Baseline, %, median","[2]; 4 g/day, week 12",−8.1%
same,"TC End of Treatment, median","[2]; 4 g/day, week 12",151.5 mg/dL
same,"TGs Change From Baseline, %, median","[2]; 4 g/day, week 12",−17.1%
same,"TGs End of Treatment, median","[2]; 4 g/day, week 12",230.5 mg/dL
same,"VLDL-C Change From Baseline, %, median","[2]; 4 g/day, week 12",−16.3%
same,"VLDL-C End of Treatment, median","[2]; 4 g/day, week 12",36.5 mg/dL
same,"VLDL-TGs Change From Baseline, %, median","[2]; 4 g/day, week 12",−25.8%
same,"VLDL-TGs End of Treatment, median","[2]; 4 g/day, week 12",168.5 mg/dL
same,"hsCRP Change From Baseline, %, median","[2]; 4 g/day, week 12",−16.9%
same,"hsCRP End of Treatment, median","[2]; 4 g/day, week 12",2.1 mg/L
same,Apo B Median Difference in % Change From Baseline vs. Placebo,[2]; [5],"−18.7, 0.0002%"
same,Apo C-III Median Difference in % Change From Baseline vs. Placebo,[2]; [5],"−15.0, 0.0168%"
same,HDL-C Median Difference in % Change From Baseline vs. Placebo,[2]; [5],"−8.3, 0.0362%"
same,LDL-C Median Difference in % Change From Baseline vs. Placebo,[2]; [5],"−20.8, 0.0086%"
same,Lp-PLA2 Median Difference in % Change From Baseline vs. Placebo,[2]; [5],"−17.5, 0.0068%"
same,Non-HDL-C Median Difference in % Change From Baseline vs. Placebo,[2]; [5],"−21.5, <0.0001%"
same,Ox-LDL Median Difference in % Change From Baseline vs. Placebo,[2]; [5],"−25.7, 0.0068%"
same,RLP-C Median Difference in % Change From Baseline vs. Placebo,[2]; [5],"−38.8, 0.0295%"
same,TC Median Difference in % Change From Baseline vs. Placebo,[2]; [5],"−18.2, <0.0001%"
same,"TGs Median Difference in % Change From Baseline, Icosapent Ethyl 4 g/day vs. Placebo",[2]; [5],"−16.9, 0.0074%"
same,VLDL-C Median Difference in % Change From Baseline vs. Placebo,[2]; [5],"−28.7, 0.0026%"
same,VLDL-TGs Median Difference in % Change From Baseline vs. Placebo,[2]; [5],"−25.6, 0.0020%"
same,hsCRP Median Difference in % Change From Baseline vs. Placebo,"[2]; 4 g/day, week 12, Hodges-Lehmann, P 0.1209","−25.0, 0.1209%"
same,"RLP-C Change From Baseline, %, median","[2]; 4 g/day, week 12, n = 9",−38.9%
same,"RLP-C End of Treatment, median","[2]; 4 g/day, week 12, n = 9",10.0 mg/dL

# — patent publication US20230248741A1, “Compositions and Methods for Lowering Triglycerides in a Subject with Reduced Kidney Function and Diabetes Mellitus” (Amarin Pharmaceuticals Ireland Limited, priority 2018, published 2023)
